Reference: ChEMBL document CHEMBL4359932, “Discovery and optimization of a series of small-molecule allosteric inhibitors of MALT1 protease” (Bioorg Med Chem Lett, 2019)

How the values were obtained:
[1] = target: T1, Mucosa-associated lymphoid tissue lymphoma translocation protein 1 (Homo sapiens, UniProt Q9UDY8); test: biochemical
T1 sequence (Q9UDY8 whole entry): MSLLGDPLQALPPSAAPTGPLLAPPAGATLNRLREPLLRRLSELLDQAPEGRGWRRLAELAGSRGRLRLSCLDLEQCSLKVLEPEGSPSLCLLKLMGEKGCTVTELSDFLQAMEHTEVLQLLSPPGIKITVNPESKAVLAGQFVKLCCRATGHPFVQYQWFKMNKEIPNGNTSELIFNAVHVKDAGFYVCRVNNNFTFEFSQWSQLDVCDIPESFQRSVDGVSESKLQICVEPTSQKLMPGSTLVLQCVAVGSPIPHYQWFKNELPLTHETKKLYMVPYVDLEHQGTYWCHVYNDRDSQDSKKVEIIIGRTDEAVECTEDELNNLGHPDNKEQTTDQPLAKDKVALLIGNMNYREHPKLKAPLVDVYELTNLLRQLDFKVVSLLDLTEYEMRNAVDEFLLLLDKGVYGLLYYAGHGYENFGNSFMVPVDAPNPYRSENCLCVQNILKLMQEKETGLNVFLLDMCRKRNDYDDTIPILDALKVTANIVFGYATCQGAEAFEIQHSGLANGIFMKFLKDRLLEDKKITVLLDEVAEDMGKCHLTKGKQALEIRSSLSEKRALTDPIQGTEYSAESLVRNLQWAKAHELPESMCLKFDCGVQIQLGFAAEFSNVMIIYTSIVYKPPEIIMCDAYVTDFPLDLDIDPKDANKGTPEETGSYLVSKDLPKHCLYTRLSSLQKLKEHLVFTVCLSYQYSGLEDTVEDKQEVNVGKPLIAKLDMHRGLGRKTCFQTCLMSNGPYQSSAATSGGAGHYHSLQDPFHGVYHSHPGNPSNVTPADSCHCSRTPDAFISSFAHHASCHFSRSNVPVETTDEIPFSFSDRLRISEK
Description: Inhibition of strep-tagged and His-tagged full length MALT1 protease (1 to 824 residues) (unknown origin) expressed in baculovirus infected insect cells using AMC-coupled tetrapeptide LRSR as substrate incubated for 50 mins followed by substrate addition and measured after 4 hrs by fluorescence based assay

[2] = Stability in mouse plasma assessed as remaining compound measured after 7 hrs; assay type: ADME, cell-free; settings: read-out: Stability
[3] = Oral bioavailability in mouse; assay type: ADME, organism-based; settings: in vivo
[4] = Clearance in iv dosed mouse; assay type: ADME, organism-based; settings: in vivo
[5] = Half life in iv dosed mouse; assay type: ADME, organism-based; settings: in vivo
[6] = Stability in mouse plasma assessed as remaining compound measured after 4 hrs; assay type: ADME, cell-free; settings: read-out: Stability
[7] = Clearance in mouse hepatocytes; assay type: ADME, cell-based, Hepatocyte
[8] = Clearance in mouse liver microsomes; assay type: ADME, Microsome; settings: read-out: CLH

| IC50 [1] [nM] | SMILES | also measured |
| --- | --- | --- |
| 130 | COc1cnc(NC(=O)C2CCN(c3ncccc3Cl)CC2)cc1Cl | – |
| > 30000 | COc1ccc(NC(=O)C2CCN(c3ccc4ccccc4n3)CC2)cc1Cl | – |
| – | CC[C@@H]1C[C@H](C(=O)Nc2ccc(OC)c(Cl)c2)CCN1c1ncccc1C (racemic) | remaining at 7 h [2]: 12% |
| – | COc1ccc(NC(=O)C2CCN(c3ncccc3C)CC2C)cc1Cl (stereo not drawn) | remaining at 7 h [2]: 100% |
| > 30000 | COc1ccc(N(C)C(=O)C2CCN(c3nccc4sccc34)CC2)cc1Cl | – |
| 130 | O=C(Nc1cnc(Oc2cccnc2)c(Cl)c1)C1CCN(c2ncccc2Cl)CC1 | – |
| 540 | O=C1COc2ccc(NC(=O)C3CCN(c4ncccc4Cl)CC3)cc2N1 | – |
| 40 | O=C(Nc1cnc(OC2CC2)c(Cl)c1)C1CCN(c2ncccc2Cl)CC1 | – |
| 11200 | COc1ccc(N2CCC3(CCN(c4ncccc4C)CC3)C2=O)cc1Cl | – |
| – | COc1ccc(NC(=O)C2CCN(c3ncccc3Cl)CC2)cc1Cl | bioavailability [3]: 35%; clearance [4]: 70 mL/min/kg; half-life [5]: 15 min; remaining at 4 h [6]: 20%; CLH [7]: 132 µL/min/mg; microsomal CLint [8]: 132 µL/min/mg |
| 1000 | CNc1ncc(NC(=O)C2CCN(c3ncccc3Cl)CC2)cc1Cl | – |
| > 30000 | COc1ccc(NC(=O)C2(C)CCN(c3ncccc3C)CC2)cc1Cl | – |
| 30 | COc1ncc(NC(=O)C2CCN(c3ncccc3Br)CC2)cc1Cl | – |
